These results are taken from patent publication US10919911B2, “Tricyclic ASK1 inhibitors” (Terns, Inc., priority 2018, dated 2021).

Sequence of ASK1 kinase (Q99683 whole entry): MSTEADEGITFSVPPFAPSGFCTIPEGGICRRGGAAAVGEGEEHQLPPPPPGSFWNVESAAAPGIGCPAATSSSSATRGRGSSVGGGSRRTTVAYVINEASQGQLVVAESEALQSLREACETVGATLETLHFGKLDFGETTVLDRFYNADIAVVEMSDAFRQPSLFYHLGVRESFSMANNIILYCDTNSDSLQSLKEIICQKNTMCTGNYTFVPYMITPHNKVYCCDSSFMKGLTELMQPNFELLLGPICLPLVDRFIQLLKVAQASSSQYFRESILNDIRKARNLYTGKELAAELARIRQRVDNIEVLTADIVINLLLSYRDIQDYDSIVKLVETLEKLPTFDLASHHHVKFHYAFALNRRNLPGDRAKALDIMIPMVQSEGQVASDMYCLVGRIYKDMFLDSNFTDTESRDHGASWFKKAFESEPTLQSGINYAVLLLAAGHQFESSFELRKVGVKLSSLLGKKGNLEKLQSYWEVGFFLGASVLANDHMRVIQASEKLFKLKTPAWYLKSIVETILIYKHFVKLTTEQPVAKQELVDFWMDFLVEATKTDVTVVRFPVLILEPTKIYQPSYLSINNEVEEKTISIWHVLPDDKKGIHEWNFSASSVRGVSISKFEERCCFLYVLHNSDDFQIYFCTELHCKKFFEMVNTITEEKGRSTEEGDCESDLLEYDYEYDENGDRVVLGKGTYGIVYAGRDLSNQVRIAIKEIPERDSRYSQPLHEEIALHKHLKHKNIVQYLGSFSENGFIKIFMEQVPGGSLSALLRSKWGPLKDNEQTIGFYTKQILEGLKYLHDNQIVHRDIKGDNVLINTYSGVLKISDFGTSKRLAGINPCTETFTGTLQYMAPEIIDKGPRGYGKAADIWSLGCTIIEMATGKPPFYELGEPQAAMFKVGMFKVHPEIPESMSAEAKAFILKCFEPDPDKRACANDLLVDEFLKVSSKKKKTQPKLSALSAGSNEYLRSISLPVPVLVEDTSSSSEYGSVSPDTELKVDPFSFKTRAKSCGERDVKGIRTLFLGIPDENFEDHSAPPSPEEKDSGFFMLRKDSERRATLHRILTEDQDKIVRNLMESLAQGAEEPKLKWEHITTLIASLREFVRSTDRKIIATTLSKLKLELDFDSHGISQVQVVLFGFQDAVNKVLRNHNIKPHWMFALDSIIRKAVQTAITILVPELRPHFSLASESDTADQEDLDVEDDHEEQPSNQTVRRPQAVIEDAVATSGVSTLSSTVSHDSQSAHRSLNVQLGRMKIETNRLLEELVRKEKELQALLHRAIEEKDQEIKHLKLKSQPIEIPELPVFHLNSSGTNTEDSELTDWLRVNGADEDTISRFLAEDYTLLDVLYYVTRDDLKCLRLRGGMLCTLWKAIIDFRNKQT

The target in this assay is ASK1 kinase (Homo sapiens (Human), UniProt Q99683). Kind of assay: RBC Kinase Assay (33P-ATP radiometric, myelin basic protein substrate). In kind it is biochemical. The settings on record: 20 ng ASK1 kinase, MBP substrate, 120 min at room temperature, 1% DMSO. The method in brief:
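Radiometric filter-binding assay: 20 ng ASK1 with myelin basic protein in 20 mM Hepes pH 7.5, 10 mM MgCl2, 1 mM EGTA, 2 mM DTT, 1% DMSO; started with 33P-ATP, 120 min at room temperature. Reactions spotted on P81 paper, acid-washed, radioactivity counted; IC50 determined.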
As to `Cc1cc(F)c(C(=O)Nc2cccc3c2OCC(CO)n2cnnc2-3)cc1-n1cnc(C2CC2)c1` (stereo not shown) [Example 81, 5-(4-cyclopropyl-1H-imidazol-1-yl)-2-fluoro-N-(5-(hydroxymethyl)-5,6-dihydrobenzo[f][1,2,4]triazolo[4,3-d][1,4]oxazepin-8-yl)-4-methylbenzamide], the midpoint of inhibition, the IC50, lay at 5.7 nM.
With `C[C@H]1COc2c(NC(=O)c3cc(-n4cnc(C5CC5)c4)c(N4CCOCC4)cn3)cccc2-c2nncn21` [Example 38, (S)-4-(4-cyclopropyl-1H-imidazol-1-yl)-N-(5-methyl-5,6-dihydrobenzo[f][1,2,4]triazolo[4,3-d][1,4]oxazepin-8-yl)-5-morpholinopicolinamide] the figure was 0.6 nM; with `C[C@@H]1CN(c2cnc(C(=O)Nc3cccc4c3OCCn3nnnc3-4)cc2-n2cnc(C3CC3)c2)CCO1` [Example 55, (R)-4-(4-cyclopropyl-1H-imidazol-1-yl)-N-(5,6-dihydrobenzo[f]tetrazolo[1,5-d][1,4]oxazepin-8-yl)-5-(2-methylmorpholino)picolinamide], 2.1 nM.
`CN1CCN(c2cnc(C(=O)Nc3cccc4c3OCCn3nnnc3-4)cc2-n2cnc(C3CC3)c2)CC1` [Example 54, 4-(4-cyclopropyl-1H-imidazol-1-yl)-N-(5,6-dihydrobenzo[f]tetrazolo[1,5-d][1,4]oxazepin-8-yl)-5-(4-methylpiperazin-1-yl)picolinamide] returned an IC50 of 5.9 nM.
With `O=C(Nc1cccc2c1OCCn1nnnc1-2)c1cc(-n2cnc(C3CC3)c2)c(N2CC[C@@H](O)C2)cn1` [Example 57, (R)-4-(4-cyclopropyl-1H-imidazol-1-yl)-N-(5,6-dihydrobenzo[f]tetrazolo[1,5-d][1,4]oxazepin-8-yl)-5-(3-hydroxypyrrolidin-1-yl)picolinamide] the figure was 4.7 nM.
For `Cc1cc(F)c(C(=O)Nc2cccc3c2O[C@H](C)Cn2nnnc2-3)cc1-n1cnc(C2CC2)c1` [Example 43, (R)-5-(4-cyclopropyl-1H-imidazol-1-yl)-2-fluoro-4-methyl-N-(6-methyl-5,6-dihydrobenzo[f]tetrazolo[1,5-d][1,4]oxazepin-8-yl)benzamide], the IC50 turned out to be 0.9 nM.
With `C[C@H]1COc2c(NC(=O)c3cc(-n4cnc(C5CC5)c4)c(N4CCOCC4)cn3)cccc2-c2nnnn21` [Example 22, (S)-4-(4-cyclopropyl-1H-imidazol-1-yl)-N-(5-methyl-5,6-dihydrobenzo[f]tetrazolo[1,5-d][1,4]oxazepin-8-yl)-5-morpholinopicolinamide] the figure was 0.6 nM.
